Source: patent publication US4000269A, “S-(α-substituted-arylmethylthio, -arylmethylsulfinyl, and -arylmethylsulfonyl)methyl phosphorus esters used as insecticides” (priority 1975, dated 1976)

Tests used:
[1] = tested on: Southern corn rootworm larvae (Diabrotica undecimpunctata); test: Southern Corn Rootworm Control (treated soil, dust on talc); assay type: in vivo; conditions: 144 h, potting soil, mortality after 6 days, read-out: Percent Control of Southern Corn Rootworm Larvae; for mortality at 1120.85 g/ha: 1 lbs./Acre; for mortality at 11208.5 g/ha: 10 lbs./Acre; for mortality at 56042.5 g/ha: 50 lbs./Acre
Experimental: (§1) Compounds are prepared as dusts on talc. The compounds are dissolved in acetone, and appropriate rates obtained by serial dilution. One and one-quarter milliliters of solution is pipetted onto a standard volume of dust in 1 -ounce jars, and the acetone allowed to evaporate. Twenty-five milliliters of moist soil and about 200 millet seeds are placed in the jar, capped and the contents thoroughly mixed. Ten second-instar larvae of the Southern corn rootworm (Diabrotica undecimpunctata ) are then placed in each jar. Mortality counts are made after 6 days and percent mortality determined.

[2] = Mammalian Toxicity Studies (LD50 for Rats); set-up: species or system male albino rats (Carworth Farms Nelson strain); conditions: rat, in vivo; 14-day observation; corn oil
Experimental: Twenty male albino rats or mice of the Carworth Farms Nelson strain (CFI strain for mice)(or other suitable strain) weighing approximately 90 to 120 grams (18-20g. for mice) are selected. Basically, these animals are fasted 24 hours before dosing. Mice are not fasted.
For materials which are soluble or easily dispersed in an aqueous medium, a 20% solution or suspension is prepared in an aqueous solution of 0.2% agar and 0.1% "Tween" 80. The same series of dosages (grams or milliliters of material per kilogram of animal body weight) are used for all materials in this test. If no previous information is available on the compound or its analogs, a maximum dosage of 10 g/kg is selected to differ by a geometric factor of 2 from the preceding dose, i.e., 10, 5, 2.5, 1.25 g/kg. A sufficient number of dosages are given so as to bracket a 50% response. The animals are observed for several hours after dosing and daily over a 14-day observation period. At the end of this period the survivors are sacrificed, weighed and subjected to a gross autopsy. The results are tabulated and the LD50 is calculated by the method of moving averages using the tables constructed by Weil. [Weil, C. S., Biometrics, 8: (3), 249-263, 1952].
Samples received as liquids may be administered undiluted or as suspensions in aqueous Agar-Tween, depending on the viscosity of the material. If the material is believed to be relatively non-toxic, an initial maximum dosage of 10 ml/kg is selected and subsequent dosages are selected based upon the severity of gross signs of toxicity.
For organic phosphate anticholinesterase insecticides, the procedure is modified somewhat. The phosphates are readied for administration by preparing a solution or dispersion in corn oil (Mazola), the concentration of which is adjusted so that the total volume of the dose is 20 ml/kg ([…]) in every case. The initial solution is prepared by deciding upon the maximum dosage in mg/kg to be administered and preparing 50 ml. (10 in mouse test) of this solution of such a concentration that the desired dosage in mg/kg is delivered when 2 ml. (0.5 ml. in mouse test) of the solution is administered for 100 g (20 g in mouse) of rat body weight. Serial dilutions differing by a factor of two are then prepared for each lower dosage level.

[3] = tested on: Tarnished Plant Bug (Lygus lineolaris); test: A. Tarnished Plant Bug leaf-dip test; assay type: in vivo; conditions: 48 h, 100 ppm., 2 days, read-out: Percent Mortality, Tarnished plant Bug
Experimental: (§2) Test compounds are prepared as 1000 ppm. solutions in 10 % acetone, 0.2 % Alrodyne 315 , and 89.8 % water. A tenfold dilution is made with 65 % acetone and 35 % water. The primary leaves of Sieva lima bean plants are dipped for 3 to 5 seconds in the test solutions and placed in an exhaust hood to dry. When dry, each leaf is placed in a 4 -inch petri dish with a moist filter paper on the bottom. Ten adult Lygus bugs are aspirated from the stock culture and placed in the petri dish. The dishes are covered and held at 80° F. and 50 % R.H. After 2 days, mortality counts are made.

[4] = tested on: Boll Weevil (Anthonomus grandis); test: B. Boll Weevil leaf-dip test; assay type: in vivo; conditions: 48 h, 100 ppm., 2 days, read-out: Percent Mortality, Boll Weevil
Experimental: as §2, with “The first or second true leaf” for “The primary leaves”, “of young cotton” for “of Sieva lima bean”, “plants is” for “plants are”, “test solution” for “test solutions”, “adult boll weevils” for “adult Lygus bugs”, “are removed” for “are aspirated”

[5] = tested on: Bean Aphid (Aphis fabae); test: C. Bean Aphid spray test; assay type: in vivo; conditions: 48 h, 2 days, read-out: Percent Mortality, Bean Aphid
Experimental: Compounds are tested at 100 , 10 and 1 ppm. in solution or suspension in 65 % acetone/35 % water. Two-inch fiber pots each containing a nasturtium plant 2 inches high and infested with about 150 aphids 2 days earlier, are placed on a turntable (4 RPM) and sprayed for two revolutions with a No. 154 DeVilbiss Atomizer at 20 psi. air pressure. The spray tip is held about 6 inches from the plants, and the spray is directed so as to give complete coverage of the aphids and the plants. The sprayed plants are laid on their sides on white enamel trays. Mortality estimates are made after holding for 2 days at 70° F. and 50% R.H.

[6] = tested on: Southern Armyworm (Prodenia eridania); test: D. Southern Armyworm leaf-dip test; assay type: in vivo; conditions: Spodoptera eridania, 48 h, 2 days, read-out: Percent Mortality, Southern Armyworm
Experimental: Compounds are tested at 1000 and 100 ppm. in solution or suspension in 65 % acetone/35 % water. Sieva lima bean primary leaves are dipped for 3 seconds in the test solution and set in a hood on a screen to dry. When dry, each leaf is placed in a 4 -inch petri dish which has a moist filter paper in the bottom and ten third-instar armyworm larvae about 3/8 inch long. The dishes are covered and held at 80° F., and 60 % R.H. After 2 days, mortality counts and estimates of the amount of feeding are made. Compounds showing partial kill and/or inhibition of feeding are held an extra day for further observations.

[7] = tested on: Two-spotted Spider Mite (Tetranychus urticae); test: E. Two-spotted Spider Mite plant-dip test; assay type: in vivo; conditions: 48 h, read-out: Percent Mortality, Two-spotted Spider Mite; for mortality at 100 ppm: 2 days
Experimental: Sieva lima bean plants with primary leaves 3 to 4 inches long are infested with about 100 adult mites per leaf 4 hours before use in this test. The mite and egg infested plants are dipped for 3 seconds in the same solutions used in the aphid test, and the plants set in the hood to dry. They are held for 2 days at 80° F., 60% R.H., and the adult mite mortality estimated on one leaf under a steroscopic microscope. The other leaf is left on the plant an additional 5 days and then examined at 10 X power to estimate the kill of eggs and of newly hatched nymphs, giving a measure of ovicidal and residual action, respectively.

[8] = tested on: Mexican Bean Beetle (Epilachna varivestis); test: F. Mexican Bean Beetle leaf-dip test; assay type: in vivo; conditions: 48 h, 2 days, read-out: Percent Mortality, Mexican Bean Beetle
Experimental: Compounds to be tested are made up as 100 or 10 ppm. solutions in 65 % acetone/35 % water. Sieva lima bean leaves are dipped in the test solution and set in the hood to dry. When dry, they are placed in 4 -inch petri dishes which have a moist filter paper in the bottom, and 10 third-instar bean beetles are added to each dish. The dishes are covered and held at 80° F., 60 % R.H. After 2 days, mortality counts and estimates of the amount of feeding are made. Compounds showing kills greater than 75 % are further tested at tenfold dilutions in 65 % acetone/35 % water.

[9] = tested on: Western Potato Leafhopper (Empoasca abrupta); test: G. Western Potato Leafhopper plant-dip test; assay type: in vivo; conditions: 48 h, 2 days, read-out: Percent Mortality, Western Potato Leafhopper
Experimental: Sieva lima bean plants with the primary leaf expanded to 3 to 4 inches are dipped into 100 or 10 ppm. 50 % acetone/50 % water solutions and set in the hood to dry. A 1 -inch piece of the tip of a treated leaf is cut off and placed in a 4 -inch petri dish with a moist filter paper in the bottom. From 3 to 10 second-instar nymphs are tapped from the culture plants into the test dish and rapidly covered. Mortality counts are made after 2 days at 80° F., and 50 % R.H.

[10] = tested on: Malaria Mosquito (Anopheles quadrimaculatus); test: H. Malaria Mosquito Adult Test; assay type: in vivo; conditions: 24 h, adults, 1 day, read-out: Percent Mortality, Malaria Mosquito
Experimental: Solutions of 65% acetone/35% water containing 10 ppm. of test compound are poured into wide-mouth 2-ounce jars, each containing a microscope slide. The slides are removed from the test solution with forceps and laid horizontally to dry on a wide-mouth 4-ounce bottle. When dry, they are placed in the same 4-ounce bottle and 10 4- to 5-day-old mosquitoes of mixed sexes are added to each bottle. A piece of cotton gauze held on by an elastic band serves as a lid, and wad of cotton soaked in 10% honey solution serves as food. Mortality counts are made after 1 day at 80° F., 50% R.H. (relative humidity) Data obtained with the above procedures are reported in Table II below.

[11] = tested on: False wireworm larvae (Eleodes suturalis); test: False Wireworm Control (treated soil, dust on talc); assay type: in vivo; conditions: 144 h, potting soil, mortality after 6 days, read-out: Percent Control of False Wireworms
Experimental: as §1, with “three wheat” for “200 millet”, “capped,” for “capped”, “False wireworm” for “second-instar”, “(Eleodes suturalis ), 10 days old,” for “of the Southern corn rootworm (Diabrotica undecimpunctata )”

Row | Structure (SMILES) | mortality at 1120.85 g/ha [1] | mortality at 11208.5 g/ha [1] | mortality at 56042.5 g/ha [1] | LD50 at 336 h [2] | mortality at 100 ppm [3] | mortality at 100 ppm [4] | mortality at 1 ppm [5] | mortality at 10 ppm [5] | mortality at 100 ppm [5] | mortality at 100 ppm [6] | mortality at 1000 ppm [6] | mortality at 100 ppm [7] | mortality at 300 ppm [7] | mortality at 10 ppm [8] | mortality at 100 ppm [8] | mortality at 10 ppm [9] | mortality at 100 ppm [9] | mortality at 10 ppm [10] | mortality at 11208.5 g/ha ([11]; 10 lbs./Acre) | mortality at 56042.5 g/ha ([11]; 50 lbs./Acre)
1 | CCOP(=S)(OCC)SCSC(C)(C)c1ccc(Cl)cc1 [Example 6, S-(p-Chloro-α,α-Dimethylbenzylthio)methyl O,O-Diethyl Phosphorodithioate] | 0% | 90% | 100% | 79 mg/kg | – | – | – | – | – | – | – | – | – | – | – | – | – | – | – | –
2 | COP(=S)(OC)SCSC(C)(C)c1cc(Cl)ccc1Cl [Example 25, S-(2,5-Dichloro-α,α-dimethylbenzylthio)methyl O,O-Dimethyl Phosphorodithioate] | 0% | 100% | 100% | 800 mg/kg | – | – | – | – | – | – | – | – | – | – | – | – | – | – | – | –
3 | COP(=S)(OC)SCSC(C)(C)c1cccc(Cl)c1Cl [Example 23, S-(2,3-Dichloro-α,α-dimethylbenzylthio)methyl O,O-Dimethyl Phosphorodithioate] | 60% | 90% | 100% | > 500 mg/kg | – | – | – | – | – | – | – | – | – | – | – | – | – | – | – | –
4 | CCOP(=S)(OCC)SCSC(C)(C)c1ccc(Cl)c(Cl)c1 [drawing 20] | – | – | – | – | 0% | 50% | 0% | 90% | 100% | 100% | 100% | 100% | 100% | 0% | 30% | 0% | 100% | 0% | – | –
5 | CC(C)OP(=S)(OC(C)C)SCSC(C)(C)c1ccccc1 [Example 20, S-(α,α-Dimethylbenzylthio)methyl O,O-diisopropylPhosphorodithioate] | – | 0% | 100% | – | – | – | – | – | – | – | – | – | – | – | – | – | – | – | 0% | 100%
6 | CCCSP(=O)(OCC)SCSC(C)(C)c1ccccc1 (centres unmarked) [drawing 16] | – | – | – | – | 0% | 0% | 90% | 100% | 100% | 100% | 100% | 100% | 100% | 80% | 80% | 0% | 100% | 0% | – | –
